Laboratory results from PMC6754133 (PLoS ONE, 2019).
Like-named read-outs stand apart in the source and are kept apart here. Each block holds one compound with its values, some of them ahead of it.

Tests used:
[1] = biological target: T1, SMO (Mus musculus, UniProt P56726); details: literature value, cited from earlier work; for IC50: read-out: Gli-RE-luciferase assay IC50
T1 construct: host or cells: NIH 3T3 Gli-RE

[2] = tested on: Hh/SMO pathway; experiment: Gli-Luciferase functional assay, NIH 3T3 Gli-RE cells stimulated with ShhN; format: cell-based; details: for Span of concentration response curve: data as percent of the maximum luminescence in the absence of antagonists, Fig 4; for Inhibition of ShhN-induced Hh signaling (in words): NIH 3T3 Gli-RE cells, ShhN stimulated
Experimental: After 24 hours, when the cells reached confluency, the culture medium was replaced with 80 μL per well of assay medium [Optimem ± 10 mM HEPES ± 1 mM Sodium Pyruvate + 1× MEM NEAA]. […] Then the cells were stimulated by addition of either ShhN-conditioned media or control media (DMEM±10%BCS) at a final concentration of 10%. Following incubation of the plate for at least 28 hours at 37°C, the cells were simultaneously lysed and supplemented with a luciferase substrate by addition of equal volume of Steady-Glo reagent (Promega, E2520) directly to the assay media. Plates were mixed by pipetting, centrifuged to eliminate foam, incubated for 10 minutes, and analyzed using Perkin Elmer Viktor X luminescence plate reader. The results were analyzed using a non-linear regression (Prism 6, GraphPad Software, La Jolla, CA). Data were normalized to the maximal response observed for ShhN-stimulated cells in the same experiment. A sigmoidal-dose response curve was used as a model for data analysis and IC50 value calculation.

[3] = tested on: DAOY cells; experiment: Neurosphere formation assay; format: cell-based, human; details: DAOY, 10 μM, at least 7 days, 1–2 cells per well
Experimental: (§2) The final concentration of test compounds in the wells was 10 μM. Cells were incubated at 37 °C for at least seven days. After incubation percent of wells positive with neural stem cell-derived sphere colonies were calculated for each test condition and compared.

[4] = tested on: MB-PDX cells; experiment: Neurosphere formation assay; format: cell-based, human; details: MB-PDX, 10 μM, at least 7 days, 1–2 cells per well
Experimental: as §2

[5] = tested on: MB-PDX and DAOY cells; experiment: alamarBlue cell viability assay, adherent versus NS conditions; format: cell-based, human
Experimental: The results were analyzed using a non-linear regression (Prism 6, GraphPad Software, La Jolla, CA).

[6] = tested on: DAOY cells; experiment: cells; details: Homo sapiens, 72 h, read-out: Cell viability assay IC50
[7] = tested on: Platelet-derived growth factor receptor alpha (PGFRA_HUMAN); set-up: method as in earlier work; details: S2/S3 Table; ref [1] Davis MI et al., Nat Biotechnol. 2011; cited from earlier work
[8] = tested on: Platelet-derived growth factor receptor beta (PGFRB_HUMAN); set-up: method as in earlier work; details: S2/S3 Table; ref [1] Davis MI et al., Nat Biotechnol. 2011; cited from earlier work
[9] = tested on: Mast/stem cell growth factor receptor Kit (KIT_HUMAN); set-up: method as in earlier work; details: S2/S3 Table; ref [1] Davis MI et al., Nat Biotechnol. 2011; cited from earlier work
[10] = tested on: firefly luciferase under control of cAMP response element (CRE); experiment: CRE-luciferase counter assay in HEK293s cells; format: cell-based; details: different concentrations
Experimental: (a) The drugs were tested at different concentrations in HEK293s cells stably transfected with firefly luciferase under control of cAMP response element (CRE) (pGL4.29[luc2P/CRE/Hygro], Promega). […] Raw, non-normalized luminescence values are presented, to facilitate the assessment of the extent of inhibition. Shown is a single representative experiment out of the multiple experiments performed on different days. (Mean ± SD)

[11] = tested on: MB-PDX and DAOY cells; experiment: Cell viability with and without Vismodegib (0.5 uM), alamar blue; format: cell-based, human; details: with 0.5 μM Vismodegib, 72 hours
Experimental: S6 Figure: Cell viability in Medulloblastoma Cells (MB-PDX and DAOY) [n=3]. […] The cell viability was measured after 72 hours of treatment using alamar blue. (Mean ± SD)

[12] = biological target: T2, mSMO (Mus musculus, UniProt P56726); experiment: BODIPY-Cyclopamine competition binding assay, flow cytometry, HEK293T cells transiently transfected with mSMO; details: BODIPY-Cyclopamine 5 nM
T2 construct: host or cells: HEK293T
Experimental: Prior to transfection, cell culture media was replaced with DMEM + 10%FBS for mSMO transfection and with DMEM + 10%BCS for ShhN transfection. The transfected dish was incubated for approximately 24 hours at 37°C. For the production of ShhN conditioned medium, the culture medium from ShhN-transfected HEK293T cells was collected, aliquoted in single use 1.5 mL Eppendorf tubes and either used fresh or stored at -20°C.
HEK293T cells transiently transfected with mSMO were lifted with trypsin (0.25%) and replated at 6×10^4 cells in 80 μL DMEM + 10%FBS per well in a 96 well tissue-culture treated plate (Falcon, 353219). The plate was incubated at 37°C for 24 hours. Serial dilutions of test compounds (10x final concentrations) were prepared in culture media. 10 μL of diluted compounds or control media were added to the plate after which the plate was incubated at 37°C for 10 min. […] Following at least 1.5 hours incubation at 37°C in 5% CO2, cells were lifted by vigorous pipetting, transferred to conical bottom 96-well plates, and centrifuged at 400 × g for 5 min at 4°C. Supernatant was discarded, cells were re-suspended in 300 μL of PBS + 0.5% BSA (freshly prepared), and the plate was analyzed with Guava benchtop flow cytometer. The results were interpreted with FlowJo software (version v10.1). Dose response curves were constructed in Prism 6 (GraphPad Software, La Jolla, CA).

[13] = biological target: T1, SMO; experiment: Competitive functional inhibition assay against SAG, Gli-Luciferase, NIH 3T3 Gli-RE cells; format: cell-based; details: read-out: EC50 of SAG (printed as IC50 in Fig 5c); SAG alone
Experimental: After 24 hours, when the cells reached confluency, the culture medium was replaced with 80 μL per well of assay medium [Optimem ± 10 mM HEPES ± 1 mM Sodium Pyruvate + 1× MEM NEAA]. […] Following incubation of the plate for at least 28 hours at 37°C, the cells were simultaneously lysed and supplemented with a luciferase substrate by addition of equal volume of Steady-Glo reagent (Promega, E2520) directly to the assay media. Plates were mixed by pipetting, centrifuged to eliminate foam, incubated for 10 minutes, and analyzed using Perkin Elmer Viktor X luminescence plate reader. The results were analyzed using a non-linear regression (Prism 6, GraphPad Software, La Jolla, CA). Data were normalized to the maximal response observed for ShhN-stimulated cells in the same experiment. A sigmoidal-dose response curve was used as a model for data analysis and IC50 value calculation.

[14] = tested on: nuclear Gli-1 in MB-PDX cells; experiment: Western blot quantitation of nuclear Gli-1; format: cell-based, human; details: NS conditions, 24-hour treatment, 5 μM (Fig 6f, S4 Fig)
Experimental: (§1) Nuclear fractions were prepared from cell pellets according to the method of Schreiber et. al.[81] with minor modifications. […] After 24 hours, cells were lifted from the wells by pipetting, transferred to 1.5 mL Eppendorf tubes, centrifuged at 10,000 x g for 1 minutes at 4°C, and washed once in PBS. Following supernatant removal by vacuum, cells were lysed using a plasma membrane lysis buffer [10 mM HEPES; pH 7.5, 10 mM KCl, 0.1 mM EDTA, 1 mM dithiothreitol (DTT), 0.5% Nonidet P‐40 and 0.5 mM PMSF along with 1× protease inhibitor cocktail (Sigma)] and allowed to swell on ice for 15‐20 min with intermittent mixing. Next, tubes were vortexed to disrupt cell membranes and then centrifuged at 12,000 × g at 4°C for 10 min. […] The pelleted nuclei were washed with the plasma membrane lysis buffer and re-suspended in the nuclear extraction buffer [20 mM HEPES (pH 7.5), 400 mM NaCl, 1 mM EDTA, 1 mM DTT, 1 mM PMSF with 1× protease inhibitor cocktail] and incubated on ice for 30 min. The tubes were centrifuged at 12,000 ×g for 25 min at 4°C and the supernatant (now containing the soluble fraction of the cell nuclei) was collected. Total protein concentrations were determined using the Bio-Rad Protein Assay (Bio-Rad, Hercules, CA). Nuclear extracts containing the total of 40 μg protein were separated on a 10% Tris-SDS PAGE gel (Bio-Rad Mini-PROTEAN® TGX). Gels were transferred on nitrocellulose membranes using Bio-Rad TransBlot system, after which the membranes were blocked in the blocking buffer [5% nonfat dry milk in 1× Tris Buffer Saline + 0.1% Tween 20 (TBST)] for 2 hours at room temperature. Following blocking, the membranes were washed four times with TBST (5 minutes gentle rocking per wash) and incubated overnight with primary antibody Rabbit anti-Gli-1 (Cell signaling, #C68H3); 1:250 dilution in TBST-Milk at 4°C with gentle rocking. Membranes were washed three times with TBST for 5 min each.

[15] = tested on: nuclear Gli-1 in DAOY cells; experiment: Western blot quantitation of nuclear Gli-1; format: cell-based, human; details: NS conditions, 24-hour treatment, 5 μM (Fig 6f, S4 Fig)
Experimental: as §1

[16] = tested on: MB-PDX cells; experiment: cells; details: Homo sapiens, 72 h, read-out: Cell viability assay IC50
[17] = Mus musculus, NIH3T3, NIH3T3 Gli-RE cells, ShhN-conditioned media, n = 3, read-out: Hh/SMO pathway inhibition IC50
[18] = NIH3T3 Gli-RE cells, ShhN-conditioned media, n = 3, read-out: Hh/SMO pathway inhibition IC50

T2 sequence (P56726 33-793): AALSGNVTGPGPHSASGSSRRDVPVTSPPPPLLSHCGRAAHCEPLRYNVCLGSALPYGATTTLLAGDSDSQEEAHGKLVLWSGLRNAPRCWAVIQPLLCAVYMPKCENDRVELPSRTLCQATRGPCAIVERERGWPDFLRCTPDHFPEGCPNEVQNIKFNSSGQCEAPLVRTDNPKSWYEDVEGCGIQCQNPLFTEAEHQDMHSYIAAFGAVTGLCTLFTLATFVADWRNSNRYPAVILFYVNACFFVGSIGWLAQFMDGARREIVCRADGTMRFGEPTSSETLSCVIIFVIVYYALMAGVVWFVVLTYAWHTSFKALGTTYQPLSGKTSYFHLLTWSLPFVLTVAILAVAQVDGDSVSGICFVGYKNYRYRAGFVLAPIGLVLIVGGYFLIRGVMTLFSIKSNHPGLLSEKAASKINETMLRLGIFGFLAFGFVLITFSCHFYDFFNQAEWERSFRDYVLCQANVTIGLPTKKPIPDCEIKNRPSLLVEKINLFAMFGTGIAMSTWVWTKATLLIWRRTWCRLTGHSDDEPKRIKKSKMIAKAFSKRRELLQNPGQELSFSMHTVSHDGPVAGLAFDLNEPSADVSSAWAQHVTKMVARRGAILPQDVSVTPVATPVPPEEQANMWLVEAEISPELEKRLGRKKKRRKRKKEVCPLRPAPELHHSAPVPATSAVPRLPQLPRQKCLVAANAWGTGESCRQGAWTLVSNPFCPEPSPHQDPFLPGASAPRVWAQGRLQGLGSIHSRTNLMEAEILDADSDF
T1 sequence (P56726 33-793): as above

SMILES: Cc1csc(CN[C@@H]2Cc3ccc(NC(=O)c4cccc(C)c4-c4ccc(C(F)(F)F)cc4)cc3C2)n1 [23b_ NV, 3-methyl-N-[(2R)-2-[(4-methyl-1,3-thiazol-2-yl)methylamino]-2,3-dihydro-1H-inden-5-yl]-2-[4-(trifluoromethyl)phenyl]benzamide]
- IC50 [1]: 17 nM

SMILES: CNCc1ccc(C)c(NC(=O)c2ccc(Nc3nc(-c4ccccc4)c4ccccc4n3)cc2)c1 [BMS_833923]
- IC50 [1]: 6 to 35 nM

SMILES: CC1=C2C[C@H]3[C@@H](CC=C4C[C@@H](O)CC[C@@]43C)[C@@H]2CC[C@]12O[C@@H]1C[C@H](C)CN[C@H]1[C@H]2C [Cyclopamine]
- IC50 ([2]; Mus musculus, NIH3T3, read-out: Hh/SMO pathway inhibition IC50, NIH3T3 Gli-RE cells, ShhN-conditioned media, n = 3): 189 nM
- Span of concentration response curve [2]: 105.7
- IC50 ([2]; read-out: Hh/SMO pathway inhibition IC50, NIH3T3 Gli-RE cells, ShhN-conditioned media, n = 3): 189 nM

SMILES: C#Cc1cccc(Nc2ncnc3cc(OCCOC)c(OCCOC)cc23)c1 [Erlotinib]
- Inhibition of NS formation, wells [3]: ineffective
- Inhibition of NS formation, wells [4]: ineffective
- Effect on cell viability (in words) [5]: did not affect cell viability under any condition
- IC50 [6]: 11000 nM

SMILES: Cc1ccc(NC(=O)c2ccc(CN3CCN(C)CC3)cc2)cc1Nc1nccc(-c2cccnc2)n1 [Imatinib]
- Kd/Ki Value [7]: 31 nM
- Inhibition of NS formation, wells [3]: less potent
- Inhibition of NS formation, wells [4]: less potent
- Kd/Ki Value [8]: 14 nM
- Kd/Ki Value [9]: 13 nM
- Effect on CRE-driven luciferase activity (independent of SMO) [10]: lack of dose-dependent effect
- Inhibition of ShhN-induced Hh signaling (in words) [2]: inhibited ShhN-induced Hh signaling in a dose-dependent manner
- Change of efficacy in cell viability assay in the presence of Vismodegib [11]: improvement in efficacy

SMILES: CCC(C)n1ncn(-c2ccc(N3CCN(c4ccc(OCC5COC(Cn6cncn6)(c6ccc(Cl)cc6Cl)O5)cc4)CC3)cc2)c1=O (centres unmarked) [Itraconazole]
- IC50 [1]: 800 nM

SMILES: C[C@@]12CN(C(=O)Nc3ccnn3-c3ccccc3)CCN1C(=O)N([C@H]1C[C@@H]1c1ccccc1)C2=O [MK_5710, (8aS)-8a-methyl-1,3-dioxo-2-[(1S,2R)-2-phenylcyclopropyl]-N-(1-phenyl-1H-pyrazol-5-yl)hexahydroimid azo[1,5-a]pyrazine-7(1H)-carboxamide]
- IC50 [1]: 17 nM

- Displacement of BODIPY-Cyclopamine from SMO (in words) [12]: no effect
- IC50 [2, 17]: 327 nM
- IC50 [2, 18]: 328 nM
SMILES: COC(=O)Nc1nc2ccc(C(=O)c3ccccc3)cc2[nH]1 [Mebendazole]
- Inhibition of ShhN-induced Hh signaling (in words) [2]: inhibited ShhN-induced Hh signaling in a dose-dependent manner
- Span of concentration response curve [2]: 108.1

- Displacement of BODIPY-Cyclopamine from SMO (in words) [12]: no effect
SMILES: CS(=O)(=O)Nc1ccc([N+](=O)[O-])cc1Oc1ccccc1 [Nimesulide]
- Inhibition of ShhN-induced Hh signaling (in words) [2]: inactive
- Span of concentration response curve [2]: -3.874

- EC50 [13]: 79 nM
SMILES: CNC1CCC(N(Cc2cccc(-c3ccncc3)c2)C(=O)c2sc3ccccc3c2Cl)CC1 (centres unmarked) [SAG]
- EC50 ([1]; read-out: Gli-RE-luciferase assay EC50 (for SAG the value is EC50 not IC50), agonist): 3 nM

SMILES: Cc1nn(-c2ccccc2)c(C)c1/C=N/N1CCN(Cc2ccccc2)CC1 [SANT-1]
- IC50 [1]: 20 nM

SMILES: CC1=C2C[C@H]3[C@@H](CC[C@@H]4C[C@H](NS(C)(=O)=O)CC[C@@]43C)[C@@H]2CC[C@@]2(C1)O[C@@H]1C[C@H](C)CN[C@H]1[C@H]2C [Saridegib]
- IC50 [1]: 9 nM

SMILES: Cc1c(C(=O)Nc2ccc(N3C[C@@H](C)O[C@@H](C)C3)nc2)cccc1-c1ccc(OC(F)(F)F)cc1 [Sonidegib (NVP-LDE225), Sonidegib]
- IC50 [1]: 2.5 nM

SMILES: CN(C(=O)c1ccc(F)cc1C(F)(F)F)C1CCN(c2nnc(-c3ccnn3C)c3ccccc23)CC1 [Taladegib (LY2940680), Taladegib]
- IC50 [1]: 2.6 nM

- Displacement of BODIPY-Cyclopamine from SMO (in words) [12]: no effect
SMILES: O=C1CCC(N2C(=O)c3ccccc3C2=O)C(=O)N1 (centres unmarked) [Thalidomide]
- Inhibition of ShhN-induced Hh signaling (in words) [2]: inactive
- Span of concentration response curve [2]: -12.85

- IC50 [2, 17]: 4.08 nM
- IC50 [2, 18]: 4 nM
SMILES: CS(=O)(=O)c1ccc(C(=O)Nc2ccc(Cl)c(-c3ccccn3)c2)c(Cl)c1 [Vismodegib]
- Inhibition of NS formation, wells [3]: ineffective
- Inhibition of NS formation, wells [4]: ineffective
- Nuclear Gli-1, mean, % of untreated samples [14]: 67%
- Nuclear Gli-1, mean, % of untreated samples [15]: 75%
- Effect on CRE-driven luciferase activity (independent of SMO) [10]: lack of dose-dependent effect
- IC50 [16]: 52000 nM
